# Source: patent US20250099448A1, “HETEROCYCLIC COMPOUNDS” (Hoffmann-La Roche Inc., priority 2022, published 2025)
# Biological target: T1, MAGL protein (Homo sapiens, UniProt Q99685)
# T1 sequence (Q99685 1-303): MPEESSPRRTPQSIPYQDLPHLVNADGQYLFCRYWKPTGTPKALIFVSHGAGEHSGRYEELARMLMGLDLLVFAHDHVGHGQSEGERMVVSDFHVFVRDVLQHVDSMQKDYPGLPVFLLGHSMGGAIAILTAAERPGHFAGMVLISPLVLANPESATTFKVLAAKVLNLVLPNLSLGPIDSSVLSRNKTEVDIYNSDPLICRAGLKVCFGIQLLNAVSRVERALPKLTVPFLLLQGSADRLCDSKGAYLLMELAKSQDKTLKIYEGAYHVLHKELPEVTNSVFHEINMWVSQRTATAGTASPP
# Experiment: 2-AG assay: MAGL inhibitory activity by hydrolysis of 2-arachidonoylglycerol to arachidonic acid, followed by mass spectrometry
# Type: biochemical
# Conditions: 8 μM 2-arachidonoylglycerol, 15 min preincubation, 30 min reaction at RT, RapidFire MS readout
# Outline: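 Activity was measured by RapidFire SPE–triple-quad MS as the ratio of arachidonic acid to d8-arachidonic acid after 2-AG hydrolysis (8 μM substrate, 30 min, RT, acetonitrile quench). Compounds, tested from 12.5 μM down to […], were first preincubated 15 min with MAGL in TRIS/EDTA/Tween-20 buffer containing 2.5% DMSO.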
row,Structure (SMILES),IC50
1,"CS(=O)(=O)c1cnn(-c2ccc(C3CN(C(=O)N4CC5(CC(c6nnc(C7CC7)[nH]6)C5)C4)C3)cc2)c1 [Example 500, [6-(5-cyclopropyl-4H-1,2,4-triazol-3-yl)-2-azaspiro[3.3]heptan-2-yl]-[3-[4-(4-mesylpyrazol-1-yl)phenyl]azetidin-1-yl]methanone]",9.48 nM
2,O=C(N1CC(Oc2cnc(Cl)c(C3CC3)c2)C1)N1CC2(CC(c3nnc(C4CC4)[nH]3)C2)C1 [compound 328],35.4 nM
3,CS(=O)(=O)c1cncc(CC2CC3(C2)CN(C(=O)N2CC4(CC(c5nnc(C6CC6)[nH]5)C4)C2)C3)c1 [compound 120],42 nM
4,O=C(N1CC2(CC(c3nc(C4(O)CC4)n[nH]3)C2)C1)N1CC2(CC(S(=O)(=O)c3cccc(OC(F)(F)F)c3)C2)C1 [compound 484],89.2 nM
5,N#Cc1cc(F)ccc1C12CC(C3CN(C(=O)N4CC5(CC(c6nc(C7(O)CC7)n[nH]6)C5)C4)C3)(C1)C2 [compound 509],5.16 nM
6,Cc1c(CN2CC3(C2)CN(C(=O)N2CC4(CC(c5nnc(C6CC6)[nH]5)C4)C2)C3)cnn1C [compound 897],308 nM
7,O=C(N1CC2(CC(Cn3ncnc3C(F)(F)F)C2)C1)N1CC2(CC(c3nc(C4CC4)n[nH]3)C2)C1 [compound 444],3.25 nM
8,O=C(N1CC2(CC(c3nnc(C4CC4)[nH]3)C2)C1)N1CC2(C1)CN(S(=O)(=O)c1ccc(F)c(F)c1)C2 [compound 106],20.6 nM
9,Cn1nc(CC2CC3(C2)CN(C(=O)N2CC4(CC(c5nc(C6(F)CC6)n[nH]5)C4)C2)C3)cc1C(F)(F)F [compound 602],0.11 nM
10,O=C(N1CC(c2ccc(C3(C(F)(F)F)CC3)cc2)C1)N1CC2(CC(c3nnc(C4(O)CC4)[nH]3)C2)C1 [compound 227],0.91 nM
11,O=C(N1CC2(CC(Cc3ccc(C(F)(F)F)nc3)C2)C1)N1CC2(CC(c3nnc(C4CCC4)[nH]3)C2)C1 [compound 7],3.65 nM
12,N#Cc1ccc(CC2CC3(C2)CN(C(=O)N2CC4(CC(c5nc(C6COC6)n[nH]5)C4)C2)C3)cc1C(F)(F)F [compound 771],7.02 nM
13,O=C(N1CC2(CC(c3nnc(C4CC4)[nH]3)C2)C1)N1CC2(CCN(Cc3ccc(C(F)(F)F)nn3)C2)C1 [compound 183],31.3 nM
14,COc1ccccc1S(=O)(=O)N1CC2(CN(C(=O)N3CC4(CC(c5nnc(C6CC6)[nH]5)C4)C3)C2)C1 [compound 108],34.1 nM
15,O=C(N1CC(NCc2cc(F)ccc2C(F)(F)F)C1)N1CC2(CC(c3nnc(C4CC4)[nH]3)C2)C1 [compound 187],70.5 nM
16,N#Cc1cc(C(F)(F)F)ncc1O[C@H]1CCC2(C1)CN(C(=O)N1CC3(CC(c4nc(C5(O)CC5)n[nH]4)C3)C1)C2 [Example 696],42.2 nM
17,O=C(N1CC(C23CC(c4cccc(OC(F)(F)F)c4)(C2)C3)C1)N1CC2(CC(c3nc(C4CC4)n[nH]3)C2)C1 [compound 459],0.02 nM
18,"CS(=O)(=O)c1ccccc1-c1ccc(C2CN(C(=O)N3CC4(CC(c5nc(C6CC6)n[nH]5)C4)C3)C2)cc1 [Example 516, [6-(3-cyclopropyl-1H-1,2,4-triazol-5-yl)-2-azaspiro[3.3]heptan-2-yl]-[3-[4-(2-mesylphenyl)phenyl]azetidin-1-yl]methanone]",0.17 nM
19,O=C(N1CC2(CC(c3nnc(C4CC4)[nH]3)C2)C1)N1CC2(C1)CN(S(=O)(=O)c1ccc(F)c(C(F)(F)F)c1)C2 [compound 102],15 nM
20,O=C(N1CC2(CC(Oc3nc(C(F)(F)F)cs3)C2)C1)N1CC2(CC(c3nc(C4CC4)n[nH]3)C2)C1 [compound 423],1.11 nM
21,O=C(N1CC(C23CC(Cc4ccc(C(F)(F)F)cc4F)(C2)C3)C1)N1CC2(CC(c3nc(C4CC4)n[nH]3)C2)C1 [compound 527],0.98 nM
22,O=C(N1CC(c2ccc(-c3nnc(C4(C(F)(F)F)CC4)[nH]3)cc2)C1)N1CC2(CC(c3nc(C4CC4)n[nH]3)C2)C1 [compound 377],4.29 nM
23,O=C(N1CC(Oc2ccc(C3CC3)cc2)C1)N1CC2(CC(c3nnc(C4(O)CC4)[nH]3)C2)C1 [compound 312],2.97 nM
24,O=C(N1CC2(CCC(Cc3ccc(C(F)(F)F)cn3)CC2)C1)N1CC2(CC(c3nnc(C4(O)CC4)[nH]3)C2)C1 [compound 49],0.81 nM
25,NC(=O)C1CCCCN1c1ccc(C2CN(C(=O)N3CC4(CC(c5nnc(C6CC6)[nH]5)C4)C3)C2)cc1 (stereo not shown) [compound 384],2.64 nM
26,O=C(N1CC2(CC(Cc3ccc(F)cc3F)C2)C1)N1CC2(CC(c3nnc(C4CC4)[nH]3)C2)C1 [compound 35],0.07 nM
27,O=C(N1CC(COc2ccc(F)cc2Cl)C1)N1CC2(CC(c3nnc(C4CC4)[nH]3)C2)C1 [compound 353],5.12 nM
28,O=C(N1CC(CCc2ccc(C(F)(F)F)cc2F)C1)N1CC2(CC(c3nc(C4(O)CC4)n[nH]3)C2)C1 [compound 349],2.48 nM

row,Structure (SMILES),IC50
1,O=C(N1CC2(CC(Cc3cncc(C(F)(F)F)c3)C2)C1)N1CC2(CC(c3nc(C4COC4)n[nH]3)C2)C1 [compound 748],37.2 nM
2,O=C(N1CC2(CC(c3nnc(C4CC4)[nH]3)C2)C1)N1CC2(CN(Cc3ncc(C(F)(F)F)cn3)C2)C1 [compound 161],78.8 nM
3,O=C(N1CC2(CC(c3nc(C4(F)CC4)n[nH]3)C2)C1)N1CC2(CN(Cc3nc(C(F)(F)F)cs3)C2)C1 [compound 643],6.67 nM
4,O=C(N1CC(c2ccc(C3(C(F)(F)F)CC3)nn2)C1)N1CC2(CC(c3nnc(C4CC4)[nH]3)C2)C1 [compound 234],139 nM
5,O=C(N1CC(c2ccc(NCC3(C(F)(F)F)CC3)cn2)C1)N1CC2(CC(c3nnc(C4CC4)[nH]3)C2)C1 [compound 256],0.78 nM
6,"O=C(N1CC(c2ccc(C3(C(F)(F)F)CC3)cc2)C1)N1CC2(CC(c3nnc([C@@H](O)C(F)(F)F)[nH]3)C2)C1 (single isomer, unassigned) [compound 229]",33.9 nM
7,O=C(N1CC2(CC(Cc3cc(C4(C(F)(F)F)CC4)[nH]n3)C2)C1)N1CC2(CC(c3nc(C4CC4)n[nH]3)C2)C1 [compound 945],0.07 nM
8,"O=C(N1CC2(CCC(Cc3cnc(C(F)(F)F)cn3)C2)C1)N1CC2(CC(c3nnc(C4CC4)[nH]3)C2)C1 (single isomer, unassigned) [compound 151]",0.51 nM
9,O=C(N1CC2(CC(c3nc(C4CC4)n[nH]3)C2)C1)N1CC2(CN(Cc3ccnn3CC(F)F)C2)C1 [compound 597],135 nM
10,O=C(N1CC(c2ccc(NC3(C(F)(F)F)CC3)nc2)C1)N1CC2(CC(c3nnc(C4CCC4)[nH]3)C2)C1 [compound 273],10.7 nM
11,O=C(N1CC2(CC(c3nc(C4CC4)n[nH]3)C2)C1)N1CC2(CN(Cc3cc(C(F)(F)F)ns3)C2)C1 [compound 713],3.42 nM
12,N#Cc1cc(CC2CC3(C2)CN(C(=O)N2CC4(CC(c5nnc(C6CC6)[nH]5)C4)C2)C3)cc(C(F)(F)F)n1 [compound 778],0.99 nM
13,O=C(N1CC2(CC(Cc3cn(C4CC4)nc3C(F)(F)F)C2)C1)N1CC2(CC(c3nc(C4CC4)n[nH]3)C2)C1 [compound 405],0.57 nM
14,O=C(N1CC2(CC(c3nnc(C4CC4)[nH]3)C2)C1)N1CC2(CC(c3ccc(C(F)(F)F)cc3F)C2)C1 [compound 938],0.29 nM
15,NC(=O)C1CC(F)(F)CCN1c1ccc(C2CN(C(=O)N3CC4(CC(c5nnc(C6CC6)[nH]5)C4)C3)C2)cc1 (stereo not shown) [compound 385],3.76 nM
16,O=C(N1CC(NCc2cc(Cl)ccc2C(F)(F)F)C1)N1CC2(CC(c3nnc(C4CC4)[nH]3)C2)C1 [compound 199],31.9 nM
17,CP(C)(=O)c1ccc(CC2CC3(C2)CN(C(=O)N2CC4(CC(c5nc(C6CC6)n[nH]5)C4)C2)C3)c(F)c1 [compound 462],3.09 nM
18,"O=C(N1CC(c2ccc([C@H]3C[C@@H](C(F)F)C3)cc2)C1)N1CC2(CC(c3nnc(C4CC4)[nH]3)C2)C1 (single isomer, unassigned) [Example 305, cis-[6-(5-Cyclopropyl-4H-1,2,4-triazol-3-yl)-2-azaspiro[3.3]heptan-2-yl]-[3-[4-[3-(difluoromethyl)cyclobutyl]phenyl]azetidin-1-yl]methanone]",0.07 nM
19,"O=C(N1CC(c2ccc(C3(C(=O)O)CC3)cc2)C1)N1CC2(CC(c3nnc(C4CC4)[nH]3)C2)C1 [Example 392, 1-[4 [1-[6-(5-cyclopropyl-4H-1,2,4-triazol-3-yl)-2-azaspiro[3.3]heptane-2-carbonyl]azetidin-3-yl]phenyl]cyclopropanecarboxylic Acid]",6.59 nM
20,O=C(N1CC2(CC(Cc3ccc(F)cc3F)C2)C1)N1CC2(CC(c3nnc(C4(O)CC4)[nH]3)C2)C1 [compound 36],0.05 nM
21,O=C(N1CC2(CC(c3nc(C4CC4)n[nH]3)C2)C1)N1CC2(CN(Cc3ccnn3CC(F)(F)F)C2)C1 [compound 717],83.8 nM
22,O=C(N1CC2(CC(Cn3cnc(C(F)(F)F)c3)C2)C1)N1CC2(CC(c3nnc(C4CC4)[nH]3)C2)C1 [compound 63],3.59 nM
23,O=C(N1CCN(Cc2ccc(C(F)(F)F)nc2)CC1)N1CC2(CC(c3nnc(C4CC4)[nH]3)C2)C1 [Example 842],133 nM
24,O=C(N1CC2(CC(c3nnc(C4CC4)[nH]3)C2)C1)N1CC2(C1)CN(S(=O)(=O)c1ccc(C(F)(F)F)cc1)C2 [compound 103],25 nM
25,O=C(N1CC2(CC(c3nnc(C4CC4)[nH]3)C2)C1)N1CC2(C1)CN(S(=O)(=O)NCC1(C(F)(F)F)CC1)C2 [compound 216],11 nM
26,O=C(N1CC2(CC(c3nc(C4CC4)n[nH]3)C2)C1)N1CC2(CN(Cc3cccn(CC(F)(F)F)c3=O)C2)C1 [compound 572],184 nM
27,O=C(N1CC2(CC(c3nc(C4CC4)n[nH]3)C2)C1)N1CC2(CN(Cc3nc(CC4CC4)no3)C2)C1 [compound 733],29.5 nM
